# Data: paper PMC7616175 (ACS chemical neuroscience, 2018)
# Where a chain is given by its changes, count along the chain named.
# Legend:
# hM1 mAChR [1] = molecular target: T1, hM1 mAChR (Homo sapiens, UniProt P11229); test: IP1 accumulation assay in FlpInCHO-hM1; assay type: cell-based; details: for log τB (logarithm of the operational efficacy parameter of the allosteric modulator): operational model of allosterism (eq 2); for log τB (logarithm of the operational efficacy parameter of the allosteric modulator) / log αβ (logarithm of the functional cooperativity estimate between ACh and allosteric modulator): pKB fixed to binding value; for log αβ (logarithm of the functional cooperativity estimate between ACh and allosteric modulator): operational model of allosterism; for cluster of two-point profile (change in baseline versus change in pEC50): 1 and 10 μM modulator, compared with BQCA, CHO-M1 cells
# T1 sequence (P11229 1-460): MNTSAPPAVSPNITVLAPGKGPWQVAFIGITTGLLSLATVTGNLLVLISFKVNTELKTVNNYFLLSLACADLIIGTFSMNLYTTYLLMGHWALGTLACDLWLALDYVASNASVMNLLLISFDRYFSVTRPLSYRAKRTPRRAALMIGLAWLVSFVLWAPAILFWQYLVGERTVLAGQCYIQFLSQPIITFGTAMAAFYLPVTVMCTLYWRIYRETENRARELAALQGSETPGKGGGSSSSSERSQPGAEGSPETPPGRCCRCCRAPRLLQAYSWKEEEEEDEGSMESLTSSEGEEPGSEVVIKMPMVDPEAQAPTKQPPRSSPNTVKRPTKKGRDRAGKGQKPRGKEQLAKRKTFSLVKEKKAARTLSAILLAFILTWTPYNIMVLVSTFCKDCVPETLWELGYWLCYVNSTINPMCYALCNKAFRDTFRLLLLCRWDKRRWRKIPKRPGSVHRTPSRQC
# hM1 mAChR [2] = molecular target: T1, hM1 mAChR; test: Radioligand equilibrium binding assay
# M1 mAChR = molecular target: T2, M1 mAChR (Mus musculus, UniProt P12657); test: IP1 accumulation assay in mouse primary cortical neurons; assay type: cell-based; details: for log τB (logarithm of the operational efficacy estimate) / τB (antilogarithm of the operational efficacy parameter): IP1 accumulation
# T2 sequence (P12657 1-460): T1 sequence (P11229 1-460) with A5V, T254S, R320K, A337G, I413V
# [3] = 3H-NMS 0.5 nM, allosteric ternary complex model
# [4] = mouse cortical neurons, ACh-mediated IP1 accumulation
Compound,log τB (logarithm of the operational efficacy parameter of the allosteric modulator) (hM1 mAChR [1]),log αβ (logarithm of the functional cooperativity estimate between ACh and allosteric modulator) (hM1 mAChR [1]),Kb (hM1 mAChR [2]) [µM],log α (logarithm of the binding cooperativity between ACh and allosteric modulator) (hM1 mAChR [2]; [3]),cluster of two-point profile (change in baseline versus change in pEC50) (hM1 mAChR [1]),further results
"Cc1ccc(COc2ccccc2-c2cc(=O)n(C3CCCCC3O)cn2)cn1 (centres unmarked) [Compound 9i, 3-(2-Hydroxycyclohexyl)-6-(2-((6-methylpyridin-3-yl)methoxy)-phenyl)pyrimidin-4(3H)-one]",0.37 ± 0.05,1.24 ± 0.18,5.5,1.30 ± 0.16,–,Kb (M1 mAChR): 3.24 µM; log αβ (logarithm of the functional cooperativity estimate) (M1 mAChR; [4]): 0.98 ± 0.11; αβ (antilogarithm of the functional cooperativity parameter) (M1 mAChR; [4]): (9.5); log τB (logarithm of the operational efficacy estimate) (M1 mAChR; mouse cortical neurons): −0.52 ± 0.09; τB (antilogarithm of the operational efficacy parameter) (M1 mAChR; mouse cortical neurons): (0.30)
"CNC(=O)c1ccc(COc2ccccc2-c2cc(=O)n(C3CCCCC3O)cn2)cc1 (centres unmarked) [Compound 15b, 4-((2-(1-(2-Hydroxycyclohexyl)-6-oxo-1,6-dihydropyrimidin-4-yl)phenoxy)methyl)-N-methylbenzamide]",–,–,–,–,cluster 4,–
"CCNC(=O)c1ccc(COc2ccccc2-c2cc(=O)n(C3CCCCC3O)cn2)cc1 (centres unmarked) [Compound 15d, N-Ethyl-4-((2-(1-(2-hydroxycyclohexyl)-6-oxo-1,6-dihydropyrimidin-4-yl)phenoxy)methyl)benzamide]",0.79 ± 0.04,1.05 ± 0.20,0.269,1.27 ± 0.13,cluster 4,–
"Cn1cc(-c2ccc(COc3ccccc3-c3cc(=O)n(C4CCCCC4O)cn3)cc2)cn1 (centres unmarked) [Compound 2, 3-(2-Hydroxycyclohexyl)-6-(2-((4-(1-methyl-1H-pyrazol-4-yl)-benzyl)oxy)phenyl)pyrimidin-4(3H)-one]",0.45 ± 0.08,0.79 ± 0.38,0.324,1.07 ± 0.19,cluster 2,Kb (M1 mAChR): 9.55 µM; log αβ (logarithm of the functional cooperativity estimate) (M1 mAChR; [4]): 2.12 ± 0.18; αβ (antilogarithm of the functional cooperativity parameter) (M1 mAChR; [4]): (132); log τB (logarithm of the operational efficacy estimate) (M1 mAChR; mouse cortical neurons): 0.47 ± 0.13; τB (antilogarithm of the operational efficacy parameter) (M1 mAChR; mouse cortical neurons): (2.95)
"NC(=O)c1ccc(COc2ccccc2-c2cc(=O)n(C3CCCCC3O)cn2)cc1 (centres unmarked) [Compound 14b, 4-((2-(1-(2-Hydroxycyclohexyl)-6-oxo-1,6-dihydropyrimidin-4-yl)phenoxy)methyl) benzamide]",0.61 ± 0.06,1.14 ± 0.26,–,1.11 ± 0.09,cluster 2,pKB (negative logarithm of the binding affinity estimate of the allosteric modulator) (hM1 mAChR [2]; [3]): 6.72 ± 0.03
"O=C(c1ccc(COc2ccccc2-c2cc(=O)n(C3CCCCC3O)cn2)cc1)N1CCCCC1 (centres unmarked) [Compound 15e, 3-(2-Hydroxycyclohexyl)-6-(2-((4-(piperidine-1-carbonyl)benzyl)-oxy)phenyl)pyrimidin-4(3H)-one]",–,–,–,–,cluster 3,–
"O=c1cc(-c2ccccc2OCc2ccc(-c3cn[nH]c3)cc2)ncn1C1CCCCC1O (centres unmarked) [Compound 10, 6-(2-((4-(1H-Pyrazol-4-yl)benzyl)oxy)phenyl)-3-(2-hydroxycyclohexyl)pyrimidin-4(3H)-one]",–,–,–,–,cluster 2,–
"CN(C)C(=O)c1ccc(COc2ccccc2-c2cc(=O)n(C3CCCCC3O)cn2)cc1 (centres unmarked) [Compound 15a, 4-((2-(1-(2-Hydroxycyclohexyl)-6-oxo-1,6-dihydropyrimidin-4-yl)phenoxy)methyl)-N,N-dimethylbenzamide]",–,–,–,–,cluster 3,–
"NS(=O)(=O)c1ccc(COc2ccccc2-c2cc(=O)n(C3CCCCC3O)cn2)cc1 (centres unmarked) [Compound 9k, 4-((2-(1-(2-Hydroxycyclohexyl)-6-oxo-1,6-dihydropyrimidin-4-yl)phenoxy)methyl) benzenesulfonamide]",–,–,–,–,cluster 2,–
"CCN(CC)C(=O)c1ccc(COc2ccccc2-c2cc(=O)n(C3CCCCC3O)cn2)cc1 (centres unmarked) [Compound 15c, N,N-Diethyl-4-((2-(1-(2-hydroxycyclohexyl)-6-oxo-1,6-dihydropyrimidin-4-yl)phenoxy)methyl)benzamide]",−0.09 ± 0.06,0.85 ± 0.16,16.2,0.81 ± 0.12,cluster 3,–
"O=c1cc(-c2ccccc2OCc2ccccc2)ncn1C1CCCCC1O (centres unmarked) [Compound 13, 6-(2-(Benzyloxy)phenyl)-3-(2-hydroxycyclohexyl)pyrimidin-4(3H)-one]",0.34 ± 0.05,1.30 ± 0.14,2.95,1.14 ± 0.13,cluster 1,–
"O=C(O)c1ccc(COc2ccccc2-c2cc(=O)n(C3CCCCC3O)cn2)cc1 (centres unmarked) [Compound 14a, 4-((2-(1-(2-Hydroxycyclohexyl)-6-oxo-1,6-dihydropyrimidin-4-yl)phenoxy)methyl)benzoic acid]",–,–,–,–,cluster 1,–
"COc1ccc(Cn2cc(C(=O)O)c(=O)c3ccccc32)cc1 [BQCA, reference compound]",–,–,–,1.26 ± 0.13,–,log αβ (logarithm of the functional cooperativity estimate) (M1 mAChR; [4]): 1.73 ± 0.34; pKB (negative logarithm of the functional binding affinity estimate for the allosteric modulator) (M1 mAChR; [4]): 4.69 ± 0.40; αβ (antilogarithm of the functional cooperativity parameter) (M1 mAChR; [4]): (54)
"CN(C)S(=O)(=O)c1ccc(COc2ccccc2-c2cc(=O)n(C3CCCCC3O)cn2)cc1 (centres unmarked) [Compound 9l, 4-((2-(1-(2-Hydroxycyclohexyl)-6-oxo-1,6-dihydropyrimidin-4-yl)phenoxy)methyl)-N,N-dimethylbenzenesulfonamide]",–,–,–,–,cluster 3,–
